Measurements as given in patent EP0357495A2, “3'Azido-3'-deoxythymidine (AZT) derivatives active against the AIDS virus” (IRE-CELLTARG S.A., priority 1988, dated 1990).
“And” between values parts separate entries of the source, which are not always exact repeats. Identical values can stand only once.

Assays:
cellules MT4 = assay: cytotoxicity on non-infected MT4 cells (MTT method); format: cell-based; conditions: for toxicité (compared with AZT, in words): comparison with AZT
Method: (§1) Les produits (AZT, AZT-5′ hémisuccinyl et AZT 5′-leucyl) à différentes concentrations ont été mis en présence de cellules MT4 (4 X 10⁴ cellules par puits de microtray) infectées ou non avec 100 CCID₅₀ de virus HIV-1 (souche HTLV-IIIB). La CCID₅₀ représente la quantité de virus à rajouter pour obtenir une infection de 50 % des cellules (dose infectieuse de cellules en culture 50).
(§2) Après cinq jours d'incubation à 37°C, le nombre de cellules vivantes a été déterminé par la méthode au MTT, basée sur la réduction par les cellules vivantes du 3′-(4, 5-diméthylthiazol-2-yl)-2,5-diphényltétrazoliumbromide, jaune, en formazan, bleu. L'activité antivirale et la cytotoxicité sont exprimées sous forme de ED₅₀ et de CD₅₀. La CD₅₀ représente la dose qui tue 50 % des cellules non infectées et la ED₅₀ représente la dose qui protège 50 % des cellules de l'infection virale.
(§3) En effet l'AZT entre en compétition avec la thymidine au niveau des enzymes de phosphorylation qui vont le transformer en AZT triphosphate (AZT TP) qui est la forme active du produit. Un excès de thymidine réduit donc très fortement l'activité de l'AZT, ce qui se traduit par une ED₅₀ plus élevée. Par conséquent, si le dérivé de l'AZT doit son activité à la libération d'AZT qui à son tour est phosphorylé en AZT TP, un excès de thymidine aura également pour effet d'élever la ED₅₀ du dérivé. La thymidine étant cytotoxique à la concentration utilisée, il est nécessaire de rajouter de la 2′déoxycytidine pour empêcher cette toxicité.
(§4) Les protocoles expérimentaux sont ceux décrits à l'exemple 9 3.1) et 9 3).

[1] = test system: virus HIV-1 (souche HTLV-IIIB); assay: anti-HIV activity in HIV-infected MT4 cells (MTT method); format: cell-based; conditions: for activité (compared with AZT, in words): comparison with AZT
Method: as §1, §2
as §3, with “La même expérience que celle décrite ci-avant (exemple 9.1)) a été réalisée, mais en présence de thymidine 250 µM et de 2′déoxycytidine 500 µM. En” for “En”
as §4

[2] = test system: virus HIV-1 (souche HTLV-IIIB); assay: viral antigen assay in HIV-infected human peripheral blood lymphocytes; format: cell-based; conditions: day 14 of culture
Source text: Les lymphocytes ont été extraits d'un concentré plaquettaire par séparation sur gradient de Ficoll et élimination des adhérentes. Après 3 jours de stimulation par la phytohémaglutinine, ils ont été transférés dans un milieu additionné d'interleukine-2 (IL-2) est infectés par le virus HIV-1 (souche HTLV-IIIB). L'AZT et son dérivé 5′ hémisuccinate à différentes concentrations ont été rajoutés aux cellules au moment de l'infection.
Trois jours après l'infection, le milieu a été remplacé par du milieu frais additionné d'IL-2, contenant les produits aux concentrations désirées pour la moitié des cellules, et ne contenant plus de produit pour l'autre moitié. Ensuite, le milieu des cellules a été remplacé à moitié par du milieu frais additionné d'IL-2, contenant ou non les produits aux concentrations désirées, tous les 3 à 4 jours.
La multiplication du virus a été suivie par dosage des antigènes viraux dans les surnageants de culture (Innotest HIV-Organon Teknika).

HIV = conditions: patients at AIDS stage, estimate; cited from earlier work
[3] = test system: virus HIV-1 (souche HTLV-IIIB); assay: viral antigen expression in HIV-infected HUT-78 cells (indirect immunofluorescence, laser cytofluorescence); format: cell-based
Source text: Les produits (AZT et AZT-5′ hémisuccinyl) à différentes concentrations ont été mis en présence de cellules HUT-78 infectées par le virus HIV-1 (souche HTLV-IIIB) à une multiplicité d'infection de 0.4. Tous les quatre jours, 3/4 du milieu ont été remplacés par du milieu frais. Après douze jours, l'expression des antigènes viraux a été mesurée par immunofluorescence indirecte à l'aide d'un sérum anti-HIV-I positif, et par cytofluorescence laser, tel que décrit par Pauwels et al. J. Virol. Meth. 16, 171-185 (1987).
Des résultats sont exprimés dans le tableau 3 en ED₅₀ et en pourcentage d'effet protecteur selon la formule : [formula] TABLEAU 3

[4] = test system: virus MSV Moloney sarcoma virus; assay: in vivo activity in MSV-infected NMRI mice (survival, tumour appearance); set-up: species or system souris NMRI
Method: L'AZT et ses dérivés selon l'invention ont été testés in vivo chez la souris NMRI (souriceaux de 2 jours) infectée par le virus MSV Moloney sarcoma virus). La drogue est adminitrée i.p. pendant 5 jours dans un volume de 25 µl/g de poids corporel. Le virus est inoculé dans la cuisse gauche de l'animal deux heures après la première administration de drogue. Les animaux sont contrôlés tous les jours selon trois critères : survie, apparition de la tumeur et poids (toxicité) pendant 50 jours. Les résultats sont repris au tableau 7 et dans les figures 8 à 11. [formula]
On entend par temps médian de survie le temps où la moitié des souris sont encore vivantes. [formula] Tableau 7

[5] = in vivo toxicity, intraperitoneal, 5-day-old NMRI mice; set-up: species or system souriceaux NMRI; conditions: AZT, i.p.
Method: L'AZT et son dérivé 5′hémisuccinyl ont été administrés par voie infra-péritonéale à de souriceaux NMRI âgés de 5 jours (100 µl/g de poids corporel). Les animaux ont été contrôlés tous les jours selon 2 critères : survie et poids pendant 25 jours.
Les résultats sont repris au tableau 9. Les souriceaux traités n'ont pas montre de différence significative dans la prise de poids par rapport aux contrôles. Tableau 9

[6] = tableau 6, MT-4, with thymidine(250 µM) + déoxy-cytidine (500 µM)
[7] = tableau 6, MT-4, without thymidine / déoxy-cytidine
[8] = listed as dérive 5′-valine de l'AZT
[9] = tableau 2, non-infected MT4 cells, 5 days at 37°C, dose that kills 50 % of cells
[10] = tableau 4, MT-4, without thymidine / 2′déoxycytidine

Cc1cn([C@H]2C[C@H](N=[N+]=[N-])[C@@H](COC(=O)[C@@H](NC(=O)OC(C)(C)C)C(C)C)O2)c(=O)[nH]c1=O [AZT 5′tBoc valyl, 5′-O-(Boc-L-valyl)-3′-azido-3′-deoxythymidine]
toxicité (compared with AZT, in words) (cellules MT4): moins toxiques que l'AZT | CD₅₀ (cellules MT4; [6]): 358 µM | CD₅₀ (cellules MT4; [7]): 420 µM | activité (compared with AZT, in words) [1]: activités comparables | ED₅₀ [1, 6]: 11.002 µM | SI [1, 6]: 33 | ED₅₀ [1, 7]: 0.0731 µM | SI [1, 7]: 5740

Cc1cn([C@H]2C[C@H](N=[N+]=[N-])[C@@H](COC(=O)[C@@H](N)C(C)C)O2)c(=O)[nH]c1=O [AZT 5′valyl, 5′-O-(L-valyl)-3′-azido-3′-deoxythymidine]
toxicité (compared with AZT, in words) (cellules MT4; listed as AZT-5′valine): comparable à celle de ce dernier | toxicité (compared with AZT, in words) (cellules MT4; [8]): comparable à celle de l'AZT | CD₅₀ (cellules MT4; [6]): 38.16 µM | CD₅₀ (cellules MT4; [7]): 3.65 µM | activité (compared with AZT, in words) ([1]; listed as AZT-5′valine): deux foix plus élevée que celle de l'AZT | activité (compared with AZT, in words) [1, 8]: plus actif que l'AZT | ED₅₀ [1, 6]: 0.0987 µM | SI [1, 6]: 386 | ED₅₀ [1, 7]: 0.0007 µM | SI [1, 7]: 5083

Cc1cn([C@H]2C[C@H](N=[N+]=[N-])[C@@H](CO)O2)c(=O)[nH]c1=O [AZT, 3′azido-3′déoxythymidine, reference compound]
ED₅₀ ([2]; durée d'administration 3 jours): 0.03 µM | ED₅₀ ([2]; durée d'administration 14 jours): 0.023 µM | augmentation du temps de survie des patients traités (HIV): ~18 mois | Pourcentage d'effet protecteur ([3]; HUT-78, day 12, concentration 0.2 µM): 36% | Pourcentage d'effet protecteur ([3]; HUT-78, day 12, concentration 1 µM): 45% | Pourcentage d'effet protecteur ([3]; HUT-78, day 12, concentration 5 µM): 65% | ED₅₀ ([3]; HUT-78 cells, multiplicity of infection 0.4, day 12): ED₅₀ AZT = 2 µM | CD₅₀ (cellules MT4; [9]): 15.8 µM and 14.2 µM | CD₅₀ (cellules MT4; [10]): 5.06 µM | CD₅₀ (cellules MT4; [7]): 5,06 µM | % ILS ([4]; AZT 5 mg/kg/jour i.p. 5 days): 26.8% | % ITL ([4]; AZT 5 mg/kg/jour i.p. 5 days): 62.8% | Temps moyen d'apparition de la tumeur ([4]; AZT 5 mg/kg/jour i.p. 5 days): 6.5 jours | Temps moyen de survie ([4]; AZT 5 mg/kg/jour i.p. 5 days): 11.3 jours | Temps médian d'apparition de la tumeur ([4]; AZT 5 mg/kg/jour i.p. 5 days): 7.3 jours | Temps médian de survie ([4]; AZT 5 mg/kg/jour i.p. 5 days): 11.6 jours | % ILS ([4]; AZT 25 mg/kg/jour i.p. 5 days): 74.8% | % ITL ([4]; AZT 25 mg/kg/jour i.p. 5 days): 190% | Temps moyen de survie ([4]; AZT 25 mg/kg/jour i.p. 5 days): >19.8 jours | Temps médian d'apparition de la tumeur ([4]; AZT 25 mg/kg/jour i.p. 5 days): 13 jours | Temps médian de survie ([4]; AZT 25 mg/kg/jour i.p. 5 days): 16 jours | % ILS ([4]; AZT 125 mg/kg/jour i.p. 5 days): 74.8% | % ITL ([4]; AZT 125 mg/kg/jour i.p. 5 days): 137% | Temps moyen d'apparition de la tumeur ([4]; AZT 125 mg/kg/jour i.p. 5 days): 10.2 jours | Temps moyen de survie ([4]; AZT 125 mg/kg/jour i.p. 5 days): >23.3 jours | Temps médian d'apparition de la tumeur ([4]; AZT 125 mg/kg/jour i.p. 5 days): 10.6 jours | Temps médian de survie ([4]; AZT 125 mg/kg/jour i.p. 5 days): 16 jours | Survivants au jour 25 ([5]; dose 1 g/kg poids corporel (équivalent AZT 1)): 0% | Survivants au jour 25 ([5]; dose 2 g/kg poids corporel (équivalent AZT 2)): 0% | indice de sélectivité ([1]; de l'ordre de): ~6000 | ED₅₀ [1, 10]: 0,0018 µM | SI [1, 10]: 2780 | ED₅₀ [1, 7]: 0.0018 µM | SI [1, 7]: 2780

CC(=O)N[C@@H](CC(=O)OC[C@H]1O[C@@H](n2cc(C)c(=O)[nH]c2=O)C[C@@H]1N=[N+]=[N-])C(=O)O [AZT-5′hémiaspartyl (isomère majeur), 5′-O-(N-acétyl-L-hemiaspartyl)-3′-azido-3′ déoxythymidine]
toxicité (compared with AZT, in words) (cellules MT4): moins toxiques que l'AZT | CD₅₀ (cellules MT4; [6]): 74.83 µM | CD₅₀ (cellules MT4; [7]): 65.06 µM | activité (compared with AZT, in words) [1]: activités comparables | indice de sélectivité (in words) ([1]; comparison with the hémisuccinyl derivative): comparable à celui du dérivé hémisuccinyl | ED₅₀ [1, 6]: 4.000 µM | SI [1, 6]: 19 | ED₅₀ [1, 7]: 0.0161 µM | SI [1, 7]: 4046

Cc1cn([C@H]2C[C@H](N=[N+]=[N-])[C@@H](COC(=O)[C@@H](N)CC(C)C)O2)c(=O)[nH]c1=O [AZT-5′leucyl, 5′O-(L-leucyl)-3′-azido-3′déoxythymidine]
CD₅₀ (cellules MT4; [9]): 25.4 µM | ED₅₀ ([1]; tableau 2, MT4 cells infected with 100 CCID₅₀ HIV-1, 5 days at 37°C, dose that protects 50 % of cells): .005 µM | SI ([1]; tableau 2, indice de sélectivité = CD₅₀ sur ED₅₀, MT4 cells): 5080 | SI dérivé/SI AZT ([1]; tableau 2, ratio within the same experiment, MT4 cells): 2.1
